Results on 23 compounds are retold here after patent US11136296B2, “Substituted N-arylethyl-2-arylquinoline-4-carboxamides and use thereof” (Bayer Aktiengesellschaft, priority 2017, dated 2021).

Chain of FP receptor (P43088 whole entry): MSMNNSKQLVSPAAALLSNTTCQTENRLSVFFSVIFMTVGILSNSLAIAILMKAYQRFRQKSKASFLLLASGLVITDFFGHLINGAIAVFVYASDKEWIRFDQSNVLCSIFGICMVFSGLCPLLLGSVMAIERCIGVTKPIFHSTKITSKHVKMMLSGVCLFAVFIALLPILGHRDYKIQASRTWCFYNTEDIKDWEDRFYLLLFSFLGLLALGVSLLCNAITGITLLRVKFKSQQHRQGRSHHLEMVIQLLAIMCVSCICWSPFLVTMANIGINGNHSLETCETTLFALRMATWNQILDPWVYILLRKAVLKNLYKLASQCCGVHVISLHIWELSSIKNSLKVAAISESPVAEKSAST

The target of the experiment is FP receptor (Homo sapiens (Human), UniProt P43088). Description: In vitro test of inhibition of human FP receptor activity (PGF2α-induced calcium flux in FP-expressing CHEM1 cells). The class given is cell-based. To be noted: PGF2α-induced (2 nM) calcium flux in FP-expressing CHEM1 cells; some as mean values from multiple determinations. An excerpt:
Table 1 below lists the IC50 values from this assay for individual working examples of the invention (some as mean values from multiple independent individual determinations): […]
For orientation: A change in cytosolic calcium serves as a functional read-out for many receptors and channels.
For orientation: IC50 means the concentration needed to halve the response being measured. On to `Cc1c(-c2ccccc2)nc2ccc(Br)cc2c1C(=O)NCC(C(=O)O)c1ccccc1` (racemic) [Example 1, (+/−)-3-{[(6-Bromo-3-methyl-2-phenylquinolin-4-yl)carbonyl]amino}-2-phenylpropanoic Acid], for which the IC50 was found to be 130 nM.

`COc1ccccc1C(CNC(=O)c1c(C)c(-c2ccccc2)nc2ccc(Br)cc12)C(=O)O` (racemic) [Example 7, (+/−)-3-{[(6-Bromo-3-methyl-2-phenylquinolin-4-yl)carbonyl]amino}-2-(2-methoxyphenyl)propanoic Acid]: the IC50 was 24 nM.

Take `Cc1c(-c2ccccc2)nc2ccc(Br)cc2c1C(=O)NCC(C(=O)O)c1ccc(F)cc1` (racemic) [Example 10, (+/−)-3-{[(6-Bromo-3-methyl-2-phenylquinolin-4-yl)carbonyl]amino}-2-(4-fluorophenyl)propanoic Acid]: the IC50 stood at 320 nM. The same measure for `Cc1c(-c2ccccc2)nc2ccc(Br)cc2c1C(=O)NCC(C)(C(=O)O)c1ccccc1` (racemic) [Example 13, (+/−)-3-{[(6-Bromo-3-methyl-2-phenylquinolin-4-yl)carbonyl]amino}-2-methyl-2-phenylpropanoic Acid]: 94 nM; for `CCC(CNC(=O)c1c(C)c(-c2ccccc2)nc2ccc(Br)cc12)(C(=O)O)c1ccccc1` (racemic) [Example 16, (+/−)-2-({[(6-Bromo-3-methyl-2-phenylquinolin-4-yl)carbonyl]amino}methyl)-2-phenylbutanoic Acid]: 170 nM. As for `Cc1c(-c2ccccc2)nc2ccc(Br)cc2c1C(=O)NCC(O)(C(=O)O)c1ccccc1` (racemic) [Example 19, (+/−)-3-{[(6-Bromo-3-methyl-2-phenylquinolin-4-yl)carbonyl]amino}-2-hydroxy-2-phenylpropanoic Acid], the figure is 150 nM; as for `Cc1c(-c2ccccc2)nc2ccc(Br)cc2c1C(=O)NCC(C(=O)O)c1cccc(C(F)(F)F)c1` (racemic) [Example 22, (+/−)-3-{[(6-Bromo-3-methyl-2-phenylquinolin-4-yl)carbonyl]amino}-2-[3-(trifluoromethyl)phenyl]propanoic Acid], 76 nM. Take `Cc1c(-c2ccccc2)nc2ccc(Br)cc2c1C(=O)NCC(C(=O)O)c1ccc2c(c1)OCO2` (racemic) [Example 23, (+/−)-2-(1,3-Benzodioxol-5-yl)-3-{[(6-bromo-3-methyl-2-phenylquinolin-4-yl)carbonyl]amino}propanoic Acid]: the IC50 came out at 530 nM. The same measure for `Cc1c(-c2ccccc2)nc2ccc(Br)cc2c1C(=O)NCC(C)(C(=O)O)c1ncccc1Cl` (racemic) [Example 26, (+/−)-3-{[(6-Bromo-3-methyl-2-phenylquinolin-4-yl)carbonyl]amino}-2-(3-chloropyridin-2-yl)-2-methylpropanoic Acid]: 44 nM; for `Cc1c(-c2ccccc2)nc2ccc(Br)cc2c1C(=O)NCC(C)(C(=O)O)c1ccccc1F` (racemic) [Example 29, (+/−)-3-{[(6-Bromo-3-methyl-2-phenylquinolin-4-yl)carbonyl]amino}-2-(2-fluorophenyl)-2-methylpropanoic Acid]: 140 nM.

As to `Cc1c(-c2ccccc2)nc2ccc(Br)cc2c1C(=O)NCC(C)(C(=O)O)c1c(F)cccc1F` (racemic) [Example 32, (+/−)-3-{[(6-Bromo-3-methyl-2-phenylquinolin-4-yl)carbonyl]amino}-2-(2,6-difluorophenyl)-2-methylpropanoic Acid], the IC50 was 150 nM. As for `Cc1c(-c2ccccc2)nc2ccc(Br)cc2c1C(=O)NCC(C)(C(=O)O)c1ccccc1Cl` (racemic) [Example 35, (+/−)-3-{[(6-Bromo-3-methyl-2-phenylquinolin-4-yl)carbonyl]amino}-2-(2-chlorophenyl)-2-methylpropanoic Acid], the figure is 190 nM; as for `Cc1c(-c2ccccc2)nc2ccc(Br)cc2c1C(=O)NCC(F)(C(=O)O)c1ccccc1` (racemic) [Example 38, (+/−)-3-{[(6-Bromo-3-methyl-2-phenylquinolin-4-yl)carbonyl]amino}-2-fluoro-2-phenylpropanoic Acid], 47 nM. `Cc1c(-c2ccccc2)nc2ccc(Br)cc2c1C(=O)NCC(C)(C(=O)O)c1cccc(C(F)(F)F)c1` (racemic) [Example 41, (+/−)-3-{[(6-Bromo-3-methyl-2-phenylquinolin-4-yl)carbonyl]amino}-2-methyl-2-[3-(trifluoromethyl)phenyl]propanoic Acid]: the IC50 is 130 nM. `COc1cccc(C(CNC(=O)c2c(C)c(-c3ccccc3)nc3ccc(Br)cc23)C(=O)O)c1` (racemic) [Example 44, (+/−)-3-{[(6-Bromo-3-methyl-2-phenylquinolin-4-yl)carbonyl]amino}-2-(3-methoxyphenyl)propanoic Acid]: the IC50 is 190 nM. The same measure for `Cc1c(-c2ccccc2)nc2ccc(Br)cc2c1C(=O)NCC(C(=O)O)c1cccc(Cl)c1` (racemic) [Example 47, (+/−)-3-{[(6-Bromo-3-methyl-2-phenylquinolin-4-yl)carbonyl]amino}-2-(3-chlorophenyl)propanoic Acid]: 43 nM; for `Cc1cccc(C(CNC(=O)c2c(C)c(-c3ccccc3)nc3ccc(Br)cc23)C(=O)O)c1` (racemic) [Example 50, (+/−)-3-{[(6-Bromo-3-methyl-2-phenylquinolin-4-yl)carbonyl]amino}-2-(3-methylphenyl)propanoic Acid]: 79 nM.

On to `COc1ccccc1C(O)(CNC(=O)c1c(C)c(-c2ccccc2)nc2ccc(Br)cc12)C(=O)O` (racemic) [Example 53, (+/−)-3-{[(6-Bromo-3-methyl-2-phenylquinolin-4-yl)carbonyl]amino}-2-hydroxy-2-(2-methoxyphenyl)propanoic Acid], for which the IC50 is 180 nM. The same measure for `COc1cccc(F)c1C(CNC(=O)c1c(C)c(-c2ccccc2)nc2ccc(Br)cc12)C(=O)O` (racemic) [Example 56, (+/−)-3-{[(6-Bromo-3-methyl-2-phenylquinolin-4-yl)carbonyl]amino}-2-(2-fluoro-6-methoxyphenyl)propanoic Acid]: 21 nM; for `Cc1c(-c2ccccc2)nc2ccc(Br)cc2c1C(=O)NCC(CC(=O)O)c1ccccc1` (racemic) [Example 63, (+/−)-4-{[(6-Bromo-3-methyl-2-phenylquinolin-4-yl)carbonyl]amino}-3-phenylbutanoic Acid]: 340 nM.

For the compound `Cc1c(-c2ccccc2)nc2ccc(Br)cc2c1C(=O)NCC(CC(=O)O)c1ccc(Cl)cc1` (racemic) [Example 66, (+/−)-4-{[(6-Bromo-3-methyl-2-phenylquinolin-4-yl)carbonyl]amino}-3-(4-chlorophenyl)butanoic Acid], the IC50 was 500 nM.

For `Cc1c(-c2ccccc2)nc2ccc(Br)cc2c1C(=O)NCC(CC(=O)O)c1cccc(Cl)c1` (racemic) [Example 72, (+/−)-4-{[(6-Bromo-3-methyl-2-phenylquinolin-4-yl)carbonyl]amino}-3-(3-chlorophenyl)butanoic Acid], the IC50 turned out to be 45 nM. The same measure for `Cc1ccccc1C(CNC(=O)c1c(C)c(-c2ccccc2)nc2ccc(Br)cc12)CC(=O)O` (racemic) [Example 75, (+/−)-4-{[(6-Bromo-3-methyl-2-phenylquinolin-4-yl)carbonyl]amino}-3-(2-methylphenyl)butanoic Acid]: 69 nM.
